ChEMBL document CHEMBL1201862, “PubChem BioAssay data set” (2004)
Calls of active or inactive are those of the source.

What was measured:
[1] = target: T1, Mannose-6-phosphate isomerase (Homo sapiens, UniProt P34949); test: MPI inhibition at elevated mannose 6-phosphate – biochemical, fluorescence intensity, high mannose 6-phosphate, primary screen (AID 1220)
T1 sequence (P34949 whole entry): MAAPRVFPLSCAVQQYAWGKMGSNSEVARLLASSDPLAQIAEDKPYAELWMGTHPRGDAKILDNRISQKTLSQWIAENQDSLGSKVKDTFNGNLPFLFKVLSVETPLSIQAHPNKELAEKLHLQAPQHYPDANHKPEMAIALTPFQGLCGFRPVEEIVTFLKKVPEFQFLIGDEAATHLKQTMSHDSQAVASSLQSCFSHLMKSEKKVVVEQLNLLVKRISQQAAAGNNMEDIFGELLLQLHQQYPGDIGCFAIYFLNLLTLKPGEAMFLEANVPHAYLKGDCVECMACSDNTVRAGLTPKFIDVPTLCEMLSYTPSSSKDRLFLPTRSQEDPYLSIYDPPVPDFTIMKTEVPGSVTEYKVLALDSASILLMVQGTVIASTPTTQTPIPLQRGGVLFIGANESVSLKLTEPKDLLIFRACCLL

[2] = target: Induced myeloid leukemia cell differentiation protein Mcl-1 (Homo sapiens, UniProt Q07820); assay type: functional
Genome polyprotein = Genome polyprotein (dengue virus type 2, UniProt P29990); test: flavivirus cap methylation enzyme inhibition – biochemical, confirmation dose response, primary screen (AID 588689); assay type: functional
[3] = fluconazole-exposed Candida albicans growth modulators – fluorescence, retest, confirmation (AID 2467); assay type: functional, cell-based
Caspase-6 = target: T2, Caspase-6 (Homo sapiens, UniProt P55212); test: inhibition of CASP6 peptide cleavage – biochemical, VEID-R110 fluorescence, cherry-pick, dose response (AID 720632)
T2 sequence (P55212 whole entry): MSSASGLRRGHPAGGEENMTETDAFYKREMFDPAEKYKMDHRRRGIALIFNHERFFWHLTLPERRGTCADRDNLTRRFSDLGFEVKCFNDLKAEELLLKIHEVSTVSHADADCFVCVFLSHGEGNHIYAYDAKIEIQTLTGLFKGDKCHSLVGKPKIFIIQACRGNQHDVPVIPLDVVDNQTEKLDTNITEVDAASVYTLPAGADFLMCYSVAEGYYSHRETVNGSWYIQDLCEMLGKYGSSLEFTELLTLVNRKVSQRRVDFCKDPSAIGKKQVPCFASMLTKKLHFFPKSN

[4] = NIH-3T3 fibroblast cytotoxicity, dose response, cytotoxicity control, cell-based, fluorescence, Alamar Blue, secondary assay (AID 2327); assay type: functional;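 also: NIH-3T3 mouse fibroblasts cultured with fluconazole at 8 µg/mL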
Albumin = Albumin (Bos taurus, UniProt P02769); test: Counterscreen for inhibitors of T-cell receptor (TCR)-CD3 interaction: Fluorescence-based biochemical high throughput dose response assay to identify inhibitors of T-cell receptor (TCR)-CD3 interaction using a TAMRA-labeled BSA probe.; assay type: functional
[5] = Counterscreen for inhibitors of Trypanosoma brucei methionyl tRNA synthetase (MetRS): Luminescence-based cell-based high throughput dose response assay to identify compounds that are cytotoxic to Jurkat human T lymphocyte cells.; assay type: functional
[6] = target: T3, Methionyl-tRNA synthetase, putative (Trypanosoma brucei brucei, UniProt Q38C91); assay type: functional, Trypanosoma brucei brucei strain 927/4 GUTat10.1
T3 sequence (Q38C91 whole entry): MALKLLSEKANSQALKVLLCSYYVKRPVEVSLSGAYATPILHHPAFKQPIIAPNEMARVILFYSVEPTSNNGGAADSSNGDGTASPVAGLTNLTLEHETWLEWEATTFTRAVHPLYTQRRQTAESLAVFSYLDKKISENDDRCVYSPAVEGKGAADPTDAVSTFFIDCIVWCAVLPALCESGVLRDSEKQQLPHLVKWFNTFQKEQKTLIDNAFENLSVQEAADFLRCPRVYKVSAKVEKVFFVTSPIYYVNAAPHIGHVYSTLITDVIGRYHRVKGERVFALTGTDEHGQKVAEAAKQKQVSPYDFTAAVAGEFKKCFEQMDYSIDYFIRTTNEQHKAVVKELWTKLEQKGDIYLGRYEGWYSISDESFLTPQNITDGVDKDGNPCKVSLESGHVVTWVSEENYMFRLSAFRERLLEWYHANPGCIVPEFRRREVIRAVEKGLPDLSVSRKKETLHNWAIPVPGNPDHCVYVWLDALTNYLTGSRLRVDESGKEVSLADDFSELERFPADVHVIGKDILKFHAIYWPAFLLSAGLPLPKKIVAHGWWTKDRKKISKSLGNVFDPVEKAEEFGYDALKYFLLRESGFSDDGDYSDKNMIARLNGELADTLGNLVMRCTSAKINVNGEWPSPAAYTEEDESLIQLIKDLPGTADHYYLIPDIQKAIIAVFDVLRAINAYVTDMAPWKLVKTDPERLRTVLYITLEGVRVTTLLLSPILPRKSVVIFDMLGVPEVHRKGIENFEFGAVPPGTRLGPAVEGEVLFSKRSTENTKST

[7] = target: T3, Methionyl-tRNA synthetase, putative; assay type: functional, Trypanosoma brucei brucei strain 927/4 GUTat10.1; remark: listed apart in the source
cells = assay type: functional, cell-based; conditions: HEK-CNG
Galanin receptor type 3 = target: T4, Galanin receptor type 3 (Homo sapiens, UniProt O60755); test: Fluorescence-based cell-based primary high throughput dose response assay to identify antagonists of the Galanin Receptor 3 (GalR3).; assay type: functional
T4 sequence (O60755 whole entry): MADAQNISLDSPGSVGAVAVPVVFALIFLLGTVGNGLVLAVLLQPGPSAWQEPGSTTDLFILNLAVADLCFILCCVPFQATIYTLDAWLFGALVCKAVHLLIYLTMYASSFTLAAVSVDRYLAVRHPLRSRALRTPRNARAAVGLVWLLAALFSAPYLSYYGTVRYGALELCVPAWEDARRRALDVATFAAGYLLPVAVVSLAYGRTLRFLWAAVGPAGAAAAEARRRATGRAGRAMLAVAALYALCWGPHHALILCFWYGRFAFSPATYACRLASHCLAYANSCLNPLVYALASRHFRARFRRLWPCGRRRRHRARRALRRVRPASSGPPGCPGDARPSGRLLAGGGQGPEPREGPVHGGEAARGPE

[8] = target: T5, Long-chain-fatty-acid--AMP ligase FadD28 (Mycobacterium tuberculosis, UniProt P9WQ59); test: Fluorescence polarization aasay to screen for inhibitors that compete for the binding of FadD28 to a bisubstrate Measured in Biochemical System Using Plate Reader - 2147-01_Inhibitor_Dose_CherryPick_Activity.; assay type: functional, Mycobacterium tuberculosis H37Rv
T5 sequence (P9WQ59 whole entry): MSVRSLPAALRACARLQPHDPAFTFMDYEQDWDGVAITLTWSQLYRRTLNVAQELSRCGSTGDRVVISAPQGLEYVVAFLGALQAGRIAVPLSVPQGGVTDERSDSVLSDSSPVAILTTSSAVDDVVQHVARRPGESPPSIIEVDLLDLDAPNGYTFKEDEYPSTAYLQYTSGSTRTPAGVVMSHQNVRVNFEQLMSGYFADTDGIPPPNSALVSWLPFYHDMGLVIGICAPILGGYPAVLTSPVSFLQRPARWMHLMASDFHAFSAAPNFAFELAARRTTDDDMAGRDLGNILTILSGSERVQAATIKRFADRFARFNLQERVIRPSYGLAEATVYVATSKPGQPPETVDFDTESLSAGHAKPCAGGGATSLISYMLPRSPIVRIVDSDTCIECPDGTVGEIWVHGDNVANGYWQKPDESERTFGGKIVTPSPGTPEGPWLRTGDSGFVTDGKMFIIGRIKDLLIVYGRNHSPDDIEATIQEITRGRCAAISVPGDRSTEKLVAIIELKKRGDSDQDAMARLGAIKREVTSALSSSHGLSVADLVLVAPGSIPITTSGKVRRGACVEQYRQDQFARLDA

[9] = target: Eukaryotic translation initiation factor 4E (Mus musculus, UniProt P63073); test: blockers of eIF4G binding by eIF4E – biochemical, TR-FRET, dose response (AID 855); assay type: functional;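 also: potency for disrupting eIF4E binding to eIF4GI seen as loss of FRET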
[10] = target: T6, Sentrin-specific protease 8 (Homo sapiens, UniProt Q96LD8); assay type: functional
T6 sequence (Q96LD8 whole entry): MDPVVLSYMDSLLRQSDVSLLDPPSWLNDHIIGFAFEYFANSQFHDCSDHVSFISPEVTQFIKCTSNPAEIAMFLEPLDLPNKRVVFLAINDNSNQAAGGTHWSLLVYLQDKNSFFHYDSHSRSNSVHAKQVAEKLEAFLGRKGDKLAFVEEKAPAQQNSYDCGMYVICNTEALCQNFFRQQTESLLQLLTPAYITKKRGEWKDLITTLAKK

Large T antigen = Large T antigen (Simian virus 40, UniProt P03070); assay type: functional, Betapolyomavirus macacae;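 also: Confirmatory-stage PubChem screen for compounds that inhibit SV40 T antigen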
[11] = target: T6, Sentrin-specific protease 8; assay type: functional; remark: listed apart in the source
[12] = target: T7, Fructose-bisphosphate aldolase (Mycobacterium tuberculosis, UniProt P9WQA3); test: Fluorescence-based biochemical high throughput dose response assay for inhibitors of the fructose-bisphosphate aldolase (FBA) of M. tuberculosis.; assay type: functional
T7 sequence (P9WQA3 whole entry): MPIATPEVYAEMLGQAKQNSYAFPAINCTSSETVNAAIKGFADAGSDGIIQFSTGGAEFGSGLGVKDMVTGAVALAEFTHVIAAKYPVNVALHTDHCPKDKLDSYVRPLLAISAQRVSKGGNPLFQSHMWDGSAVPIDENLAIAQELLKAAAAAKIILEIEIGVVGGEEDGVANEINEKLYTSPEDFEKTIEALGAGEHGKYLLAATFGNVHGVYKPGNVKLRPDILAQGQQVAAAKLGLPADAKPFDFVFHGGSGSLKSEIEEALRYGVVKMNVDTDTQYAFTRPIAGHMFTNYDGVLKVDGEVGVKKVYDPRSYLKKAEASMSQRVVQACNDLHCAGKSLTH

[13] = A cytotoxicity screen of small molecule inhibitors of the PhoP region in Salmonella typhi identified in the primary screen. [Related pubchem assays: 1850, 1864, 1985 ]; assay type: functional

Albumin, sequence (P02769 whole entry): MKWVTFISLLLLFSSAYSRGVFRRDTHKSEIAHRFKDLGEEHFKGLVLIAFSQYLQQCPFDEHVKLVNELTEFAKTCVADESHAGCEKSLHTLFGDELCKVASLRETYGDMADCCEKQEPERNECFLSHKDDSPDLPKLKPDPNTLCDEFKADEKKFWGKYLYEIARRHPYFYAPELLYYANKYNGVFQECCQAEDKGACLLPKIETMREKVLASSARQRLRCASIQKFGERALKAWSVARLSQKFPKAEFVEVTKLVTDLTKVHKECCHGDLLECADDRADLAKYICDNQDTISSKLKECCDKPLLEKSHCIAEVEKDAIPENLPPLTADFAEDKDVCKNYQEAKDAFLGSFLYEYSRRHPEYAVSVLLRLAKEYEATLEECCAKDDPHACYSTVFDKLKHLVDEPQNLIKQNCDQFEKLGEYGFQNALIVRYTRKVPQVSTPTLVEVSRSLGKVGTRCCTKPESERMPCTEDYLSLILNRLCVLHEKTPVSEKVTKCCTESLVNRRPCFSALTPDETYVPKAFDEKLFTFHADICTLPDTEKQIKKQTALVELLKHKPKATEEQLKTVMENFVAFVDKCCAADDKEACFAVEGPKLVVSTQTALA
Large T antigen, sequence (P03070 whole entry): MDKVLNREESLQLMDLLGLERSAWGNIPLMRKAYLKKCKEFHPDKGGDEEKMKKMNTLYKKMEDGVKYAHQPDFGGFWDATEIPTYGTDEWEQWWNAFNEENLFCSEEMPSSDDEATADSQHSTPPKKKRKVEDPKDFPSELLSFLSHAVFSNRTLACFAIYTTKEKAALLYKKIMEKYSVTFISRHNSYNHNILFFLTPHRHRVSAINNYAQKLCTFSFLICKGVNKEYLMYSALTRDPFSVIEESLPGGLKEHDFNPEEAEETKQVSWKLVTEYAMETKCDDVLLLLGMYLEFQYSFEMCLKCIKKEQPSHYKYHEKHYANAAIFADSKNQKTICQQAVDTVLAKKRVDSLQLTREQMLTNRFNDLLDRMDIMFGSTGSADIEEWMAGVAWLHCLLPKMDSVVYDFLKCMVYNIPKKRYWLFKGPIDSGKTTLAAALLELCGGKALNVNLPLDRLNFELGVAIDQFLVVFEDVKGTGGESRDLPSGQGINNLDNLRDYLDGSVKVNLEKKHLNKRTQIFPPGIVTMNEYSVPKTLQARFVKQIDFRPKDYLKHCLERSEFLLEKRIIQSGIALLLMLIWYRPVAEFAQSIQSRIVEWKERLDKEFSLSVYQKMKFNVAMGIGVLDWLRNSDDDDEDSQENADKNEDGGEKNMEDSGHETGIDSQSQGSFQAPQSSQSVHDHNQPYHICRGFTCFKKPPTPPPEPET
Eukaryotic translation initiation factor 4E, sequence (P63073 whole entry): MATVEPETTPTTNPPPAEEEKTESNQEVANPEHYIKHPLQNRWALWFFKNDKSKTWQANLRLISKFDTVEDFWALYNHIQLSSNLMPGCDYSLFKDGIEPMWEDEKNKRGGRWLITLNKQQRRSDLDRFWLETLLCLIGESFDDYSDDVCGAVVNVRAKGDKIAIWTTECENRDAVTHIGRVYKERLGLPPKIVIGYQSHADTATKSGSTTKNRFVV
Induced myeloid leukemia cell differentiation protein Mcl-1, sequence (Q07820 whole entry): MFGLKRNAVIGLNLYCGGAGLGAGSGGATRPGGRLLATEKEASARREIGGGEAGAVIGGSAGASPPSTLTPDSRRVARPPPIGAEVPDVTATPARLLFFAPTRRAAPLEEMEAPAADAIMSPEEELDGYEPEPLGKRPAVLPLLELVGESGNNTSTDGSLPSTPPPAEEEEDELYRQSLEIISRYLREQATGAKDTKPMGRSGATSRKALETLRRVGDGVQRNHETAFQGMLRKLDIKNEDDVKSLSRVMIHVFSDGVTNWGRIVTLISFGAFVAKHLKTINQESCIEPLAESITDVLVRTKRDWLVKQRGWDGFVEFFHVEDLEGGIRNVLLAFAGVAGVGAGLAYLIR
Genome polyprotein, sequence (P29990 2492-3391 limits assumed): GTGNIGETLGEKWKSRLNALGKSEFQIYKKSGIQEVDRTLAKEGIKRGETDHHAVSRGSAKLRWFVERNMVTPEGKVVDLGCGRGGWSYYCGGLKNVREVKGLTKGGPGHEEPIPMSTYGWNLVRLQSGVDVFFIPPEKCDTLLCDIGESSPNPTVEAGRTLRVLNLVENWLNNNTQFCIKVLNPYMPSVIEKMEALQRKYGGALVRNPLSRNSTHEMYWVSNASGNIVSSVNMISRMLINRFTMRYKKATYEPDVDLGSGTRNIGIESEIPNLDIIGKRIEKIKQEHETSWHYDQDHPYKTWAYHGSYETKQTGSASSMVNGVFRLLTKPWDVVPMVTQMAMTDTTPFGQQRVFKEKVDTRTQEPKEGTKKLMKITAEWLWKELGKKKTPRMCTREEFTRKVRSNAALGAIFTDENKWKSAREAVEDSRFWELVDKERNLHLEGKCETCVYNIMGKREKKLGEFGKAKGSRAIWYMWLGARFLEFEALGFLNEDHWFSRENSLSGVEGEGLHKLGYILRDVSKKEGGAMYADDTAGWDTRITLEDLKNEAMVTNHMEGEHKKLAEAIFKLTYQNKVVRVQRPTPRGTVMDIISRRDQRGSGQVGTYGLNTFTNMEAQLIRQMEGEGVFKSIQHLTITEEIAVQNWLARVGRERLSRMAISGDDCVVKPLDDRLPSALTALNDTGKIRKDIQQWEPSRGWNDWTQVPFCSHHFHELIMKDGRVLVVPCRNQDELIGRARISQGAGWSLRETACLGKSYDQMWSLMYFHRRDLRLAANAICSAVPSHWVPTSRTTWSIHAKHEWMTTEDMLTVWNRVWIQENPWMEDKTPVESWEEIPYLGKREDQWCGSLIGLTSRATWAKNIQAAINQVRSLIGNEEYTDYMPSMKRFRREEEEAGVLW

What does the source list for `O=C(CCN1CCN(c2ccccc2)CC1)N/N=C/c1ccc(O)c(O)c1O`?
IC50 [1]: > 50 µM (not active); IC50 [2]: 6.59 µM (active); IC50 (Genome polyprotein): 30.1 µM (active); EC50 [3]: 3.04 µM (active); AC50 (Caspase-6): 1.11 µM (active); EC50 [4]: > 150 µM (inactive); IC50 (Albumin): > 94.1 µM (inactive)

For `C[C@@H]1C=C(C(=O)NCc2nc3ccccc3[nH]2)O[C@H](OCc2ccc(CO)cc2)C1`, which IC50 [5] is on record?
Its IC50 is 83.3 µM (inactive).

What about the IC50 [6] of the same compound?
Its IC50 is 2.04 µM (active).

What about the IC50 [7] of the same compound?
Its IC50 is 1.47 µM (active).

Which results are given for `O=C(COc1ccc(C(=O)c2ccccc2)cc1)Nc1cccnc1`?
EC50 (cells): > 29.9 µM (inactive); IC50 (Galanin receptor type 3): 0.399 µM (active)

Which results are given for `COc1cccc(NC(=O)Nc2ccc(C(C)(C)C)cc2)c1`?
AC50 [8]: > 100 µM (inactive); IC50 [9]: 50 µM (inactive)

Which IC50 [5] does the source give for `OC(c1cc(Cl)cc(Cl)c1)c1nc(-c2ccccc2F)c[nH]1` (centres undefined) here?
The IC50 was 74.4 µM (inactive).

And the IC50 [6]?
The IC50 was 9.87 µM (active).

What about the IC50 [7] of the same compound?
Its IC50 is 6.33 µM (active).

Which results are given for `O=C(CSc1nc2cc3ccccc3cc2[nH]1)Nc1ccc(F)cc1`?
IC50 [5]: 51.7 µM (inactive); IC50 [6]: 119 µM (inactive); IC50 [7]: 100 µM (inactive)

Which IC50 [10] does the source give for `CCOc1ccc(N2Nc3[nH]nc(N)c3N2)cc1` here?
Its IC50 is 52.3 µM (active).

What about the IC50 (Large T antigen) of the same compound?
Its IC50 is 18 µM (active).

And the IC50 [11]?
The IC50 was 40.6 µM (active).

With `COc1cc2c(cc1N=C(S)Nc1cccc(C)c1)oc1ccccc12` as the compound, how does the IC50 [12] read?
The IC50 was 5.82 µM (active).

For `Cc1cc(C)c2c(N)c(C(=O)NN)sc2n1`, which IC50 (Albumin) is on record?
Its IC50 is > 94.1 µM (inactive).

For `Cc1cc(-c2nc3ccccc3o2)c2ccccc2n1`, which IC50 [12] is on record?
The IC50 was 2.96 µM (active).

And the EC50 [13]?
Its EC50 is > 50 µM (active).

Which IC50 [12] does the source give for `N#CCC(=O)N/N=C/c1ccc(N2N=C(c3ccccc3)CC2c2ccccc2)cc1` (centres undefined) here?
The IC50 was 0.198 µM (active).

For `CC(=O)c1cccc(NC(S)=NC2CCCCCCC2)c1`, which AC50 [8] is on record?
The AC50 was > 100 µM (inactive).
